Measured values taken from PMC5283680 (ACS chemical biology, 2016).
Values after ≈ are worked out from the molar mass of the structure shown. Read-outs that look alike come from different tables or passages of the source. Positions of bridges follow the written chain, without caps; N, C: chain ends. Non-standard residues stand in square brackets, D forms with d. Residues, ends and D or L forms follow the SMILES beside them. d(aIle) = CC[C@H](C)[C@@H](N)C(=O)O; dNMeF = CN[C@H](Cc1ccccc1)C(=O)O

Legend:
[1] = test system: Enterococcus durans ATCC 6056; format: cell-based
[2] = test system: Bacillus subtilis ATCC 6051; assay: microbe, parasite or virus in culture; format: cell-based
[3] = test system: gram-positive bacteria; settings: MIC assays; cited from earlier work
[4] = test system: Staphylococcus epidermidis ATCC 14990; format: cell-based
[5] = test system: four gram-positive bacteria; assay: MIC assays, summary over the four gram-positive bacteria; format: cell-based; settings: for MIC against the gram-positive bacteria studied: four gram-positive bacteria of Table 1
[6] = test system: Escherichia coli ATCC 10798; format: cell-based
[7] = test system: Streptococcus salivarius ATCC 13419; format: cell-based
[8] = test system: E. coli; settings: cited from earlier work
[9] = test system: various Streptococcus; settings: cited from earlier work
[10] = Enterococcus durans ATCC 6056, homologues as TFA salts
[11] = Bacillus subtilis ATCC 6051, homologues as TFA salts
[12] = Staphylococcus epidermidis ATCC 14990, homologues as TFA salts
[13] = Streptococcus salivarius ATCC 13419, homologues as TFA salts

Compound | MIC ([1]; ATCC 6056) | MIC ([2]; ATCC 6051) | MIC ([4]; ATCC 14990) | MIC against the gram-positive bacteria studied [5] | MIC [6] | MIC ([7]; ATCC 13419) | MIC [1, 10] | MIC [2, 11] | MIC [4, 12] | MIC [7, 13] | other results
CC[C@H](C)[C@H](NC(=O)[C@@H](Cc1ccccc1)NC)C(=O)N[C@@H](CO)C(=O)N[C@H](CCC(N)=O)C(=O)N[C@@H](C(=O)N[C@H](C(=O)N[C@@H](CO)C(=O)N[C@H]1C(=O)N[C@@H](C)C(=O)N[C@@H](CCCNC(=N)N)C(=O)N[C@@H]([C@@H](C)CC)C(=O)O[C@H]1C)[C@@H](C)CC)[C@@H](C)CC [Arg10-teixobactin] | 4 µg/mL (≈ 3.21 µM) | 2 µg/mL (≈ 1.61 µM) | 1 µg/mL (≈ 0.804 µM) | 1 to 4 µg/mL | >32 µg/mL | 1 µg/mL (≈ 0.804 µM) |  |  |  |  | activity relative to teixobactin [3]: about an order of magnitude less active; activity relative to teixobactin ([5]; comparison of own MIC with original published values in related bacteria): about an order of magnitude less active
CC[C@H](C)[C@H](NC(=O)[C@@H](Cc1ccccc1)NC)C(=O)N[C@@H](CO)C(=O)N[C@H](CCC(N)=O)C(=O)N[C@@H](C(=O)N[C@H](C(=O)N[C@@H](CO)C(=O)N[C@H]1C(=O)N[C@@H](C)C(=O)N[C@@H](CCCCN)C(=O)N[C@@H]([C@@H](C)CC)C(=O)O[C@H]1C)[C@@H](C)CC)[C@@H](C)CC [Lys10-teixobactin] (H-[dNMeF]IS[dQ][d(aIle)]IS[dT]AKI; ester 8-C (inferred); N-terminus assumed) | 1 µg/mL (≈ 0.822 µM) | 0.5 µg/mL (≈ 0.411 µM) | 0.25 µg/mL (≈ 0.206 µM) |  | >32 µg/mL | 0.5 µg/mL (≈ 0.411 µM) |  |  |  |  | MIC values, times lower than Arg10-teixobactin ([5]; gram-positive bacteria, relative to Arg10-teixobactin): 2–4 times
teixobactin |  |  |  |  |  |  |  |  |  |  | MIC [8]: 25 µg/mL; MIC [9]: 0.02 to 0.15 µg/mL
seco-Arg10-teixobactin |  |  |  | > 32 µg/mL |  |  | >32 µg/mL | >32 µg/mL | >32 µg/mL | >32 µg/mL | 
ent-Arg10-teixobactin |  |  |  |  |  |  | 4 µg/mL | 2 µg/mL | 2 µg/mL | 1 µg/mL | activity relative to Arg10-teixobactin ([5]; gram-positive bacteria, MIC): comparable activity
CN[C@H](CC(C)C)C(=O)N[C@H]1C(=O)N[C@@H](CC(N)=O)C(=O)N[C@H]2C(=O)N[C@H]3C(=O)N[C@H](C(=O)N[C@H](C(=O)O)c4cc(O)cc(O)c4-c4cc3ccc4O)[C@H](O)c3ccc(c(Cl)c3)Oc3cc2cc(c3O[C@@H]2O[C@H](CO)[C@@H](O)[C@H](O)[C@H]2O[C@H]2C[C@](C)(N)[C@H](O)[C@H](C)O2)Oc2ccc(cc2Cl)[C@H]1O [vancomycin, reference compound] |  |  |  |  |  |  |  |  |  |  | MIC ([2]; Bacillus subtilis, ATCC6051): 1 µg/mL (≈ 0.69 µM)
